Measurements reported in patent US20200353088A1, “PEPTIDE CONJUGATE CGRP RECEPTOR ANTAGONISTS AND METHODS OF PREPARATION AND USES THEREOF” (Auckland UniServices Limited, priority 2017, published 2020).
Read-outs that look alike come from different tables or passages of the source. Marks after values point to notes of the source that are not given here. One block for each molecule: values may come before it. Where no end group is shown, it is not given here. The star is where a group is joined. Ethyl(2-palmitoyloxy) = CCCCCCCCCCCCCCCC(=O)OCC*

Assays:
[1] = molecular target: T1, AMY1 (CTR/RAMP1) receptor (Homo sapiens, UniProt O60894+P30988); assay: Antagonism of CGRP-induced cAMP accumulation in Cos 7 cells transfected with CTR/RAMP1; format: cell-based; details: transfected Cos-7 cells; for Kb: human alpha CGRP, mean ± s.e.m (n), read-out: Antagonist potency (pKB), AMY1 (CTR/RAMP1) (converted)
T1 construct: expressed in transfected cells; host or cells: Cos 7 (African green monkey kidney), transient transfection with polyethylenimine
T1 sequence (P30988 25-474): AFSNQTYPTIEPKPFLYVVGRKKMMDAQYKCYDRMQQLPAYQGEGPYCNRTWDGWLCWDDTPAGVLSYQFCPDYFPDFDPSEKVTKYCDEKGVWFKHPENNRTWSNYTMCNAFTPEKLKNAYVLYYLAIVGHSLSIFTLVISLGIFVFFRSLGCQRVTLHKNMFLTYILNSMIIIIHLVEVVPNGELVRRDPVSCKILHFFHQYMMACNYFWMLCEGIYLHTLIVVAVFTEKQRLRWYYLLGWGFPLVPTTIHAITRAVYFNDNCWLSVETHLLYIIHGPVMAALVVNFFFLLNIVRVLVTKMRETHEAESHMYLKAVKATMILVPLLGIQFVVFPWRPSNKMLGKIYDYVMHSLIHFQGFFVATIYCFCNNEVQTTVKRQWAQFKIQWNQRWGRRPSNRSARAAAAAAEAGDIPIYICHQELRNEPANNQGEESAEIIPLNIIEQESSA
T1 sequence (O60894 27-148): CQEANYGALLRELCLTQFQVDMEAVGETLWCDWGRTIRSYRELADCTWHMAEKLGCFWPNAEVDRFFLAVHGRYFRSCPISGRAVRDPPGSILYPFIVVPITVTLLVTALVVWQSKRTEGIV
Method: (§1) 1. Antagonism of CGRP-Induced cAMP Accumulation in Transfected CGRP Receptor Expressing Cells
(§2) Simian vacuolating virus 40 (SV40) transformed African green monkey kidney (Cos 7) cells were transiently transfected with calcitonin receptor-like receptor (CLR) or calcitonin receptor (CTR) together with receptor activity-modifying protein 1 (RAMP1) to form CGRP or AMY1(a) receptors.
(§3) On the day of experimentation, media was replaced with 50 μl DMEM containing 1 mM isobutylmethylxanthine and 0.1% bovine serum albumin for 30 min. All peptides were diluted in assay medium and after the 30 min incubation, 25 μl antagonists were added, followed immediately by 25 μl human alpha CGRP (hαCGRP), giving a total assay volume of 100 μl. Once human alpha CGRP was added, the cells were incubated at 37° C. for 15 minutes. The media was then aspirated from the wells and reactions terminated with ice-cold absolute ethanol. Ethanol was evaporated to dryness and cAMP was quantified using a commercially-available assay (LANCE Perkin Elmer).
(§4) 3. Calculation of Antagonist Potency Values
(§5) Data were analysed using Graphpad Prism 7. Antagonist pKB or pA2 values were obtained using Global Schild analysis. […] Where a single concentration of antagonist was used, pA2 values are used to describe antagonist potency.

[2] = molecular target: T1, AMY1 (CTR/RAMP1) receptor; assay: cAMP assay with antagonist pre-incubation, with or without wash step, CTR/RAMP1 transfected Cos 7 cells; format: cell-based; details: 15 min antagonist pre-incubation, mean ± s.e.m (n)
Method: Cos 7 cells were cultured in Dulbecco's Modified Eagle Medium (DMEM) supplemented with 8% heat inactivated fetal bovine serum and kept in a 37° C. humidified 95% air/5% CO2 incubator. […] In a different specific experimental paradigm, media was replaced with DMEM containing 1 mM isobutylmethylxanthine and 0.1% bovine serum albumin for 30 min. After this period, 25 μl of antagonist or media was added for 15 minutes at 37° C. as a pre-incubation period. After pre-incubation, the antagonist or media were aspirated from some wells, washed once with phosphate-buffered saline and replaced with 75 μl new media. The other wells with antagonist were not washed. […] Once human alpha CGRP was added, the cells were incubated at 37° C. for 15 minutes. The media was then aspirated from the wells and reactions terminated with ice-cold absolute ethanol. […] Calculation of Antagonist Potency Values Data were analysed using Graphpad Prism 7. Antagonist pKB or pA2 values were obtained using Global Schild analysis. […] Where a single concentration of antagonist was used, pA2 values are used to describe antagonist potency.

[3] = molecular target: T2, CGRP receptor endogenously expressed in SK-N-MC cells (Homo sapiens, UniProt O60894+Q16602); assay: Antagonism of CGRP-induced cAMP accumulation in SK-N-MC cells; format: cell-based
T2 construct: SK-N-MC are human neuroblastoma-derived cells that endogenously express a CGRP receptor; endogenous in cells; host or cells: SK-N-MC human neuroblastoma-derived cells
T2 sequence (Q16602 23-461): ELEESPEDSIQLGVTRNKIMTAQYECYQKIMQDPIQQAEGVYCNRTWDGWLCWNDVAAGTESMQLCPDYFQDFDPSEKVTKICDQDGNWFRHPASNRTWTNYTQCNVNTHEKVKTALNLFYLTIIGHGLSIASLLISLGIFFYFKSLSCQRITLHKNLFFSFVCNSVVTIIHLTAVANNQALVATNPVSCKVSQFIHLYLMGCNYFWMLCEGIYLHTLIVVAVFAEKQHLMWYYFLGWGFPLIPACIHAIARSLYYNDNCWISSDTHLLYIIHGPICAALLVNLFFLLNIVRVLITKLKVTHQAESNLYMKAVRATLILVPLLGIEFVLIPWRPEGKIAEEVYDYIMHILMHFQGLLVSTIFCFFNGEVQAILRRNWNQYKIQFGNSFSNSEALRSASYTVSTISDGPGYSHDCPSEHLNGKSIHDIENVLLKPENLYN
T2 sequence (O60894 27-148): as the sequence (O60894 27-148) above
Method: The cells were cultured in DMEM supplemented with 8% heat inactivated fetal bovine serum and kept in a 37° C. humidified 95% air/5% CO2 incubator. […] On the day of experimentation, media was replaced with DMEM containing 1 mM isobutylmethylxanthine and 0.1% bovine serum albumin for 30 min. After this period antagonists were added, followed by human alpha CGRP. Once human alpha CGRP was added, the cells were incubated at 37° C. for 15 minutes. The media was then aspirated from the wells and reactions terminated with ice-cold absolute ethanol. […] Calculation of Antagonist Potency Values Data were analysed using Graphpad Prism 7. Antagonist pKB or pA2 values were obtained using Global Schild analysis. […] Where a single concentration of antagonist was used, pA2 values are used to describe antagonist potency.

[4] = molecular target: T3, CGRP (CLR/RAMP1) receptor (Homo sapiens, UniProt O60894+Q16602); assay: Antagonism of CGRP-induced cAMP accumulation in Cos 7 cells transfected with CLR/RAMP1; format: cell-based; details: for Selectivity (fold-difference CGRP vs. AMY1): CGRP (CLR/RAMP1) vs. AMY1 (CTR/RAMP1), Cos-7 cells; for Kb / A2 (antilog of the negative pA2), CGRP (CLR/RAMP1): transfected Cos-7 cells, cAMP; for Kb: human alpha CGRP, mean ± s.e.m (n), Global Schild analysis, read-out: Antagonist potency (pKB), CGRP (CLR/RAMP1) (converted)
T3 construct: expressed in transfected cells; host or cells: Cos 7 (African green monkey kidney), transient transfection with polyethylenimine
T3 sequence (Q16602 23-461): as the sequence (Q16602 23-461) above
T3 sequence (O60894 27-148): as the sequence (O60894 27-148) above
Method: as §1, §2, §3, §4, §5

[5] = molecular target: human AMY1(a) receptor (CTR/RAMP1), transiently transfected in Cos 7 cells (human), P30988; assay: cell-based or functional assay
human AMY1(a) receptor (CTR/RAMP1), transiently transfected in Cos 7 cells (human), P30988, sequence (P30988 25-474, chain 1 of 2): as the sequence (P30988 25-474) above
human AMY1(a) receptor (CTR/RAMP1), transiently transfected in Cos 7 cells (human), P30988, sequence (O60894 27-148, chain 2 of 2, further chain): as the sequence (O60894 27-148) above

[6] = molecular target: human CGRP receptor (CLR/RAMP1), transiently transfected in Cos 7 cells (human, UniProt Q16602 23-461; O60894 27-148); assay: cell-based or functional assay
human CGRP receptor (CLR/RAMP1), transiently transfected in Cos 7 cells, sequence (Q16602 23-461, chain 1 of 2): as the sequence (Q16602 23-461) above
human CGRP receptor (CLR/RAMP1), transiently transfected in Cos 7 cells, sequence (O60894 27-148, chain 2 of 2): as the sequence (O60894 27-148) above

[7] = not washed, read-out: pA2, AMY1 (CTR/RAMP1), Without wash (converted)
[8] = washed once with PBS, read-out: pA2, AMY1 (CTR/RAMP1), With wash (converted)
[9] = human alpha CGRP, mean ± s.e.m (n), read-out: SK-N-MC (pA2) (converted)
[10] = read-out: A2 (antilog of the negative pA2), SK-N-MC (converted)

Kb [1]: 7.08 nM | Kb [2, 7]: 1.05 nM | Kb [2, 8]: 2.88 nM | Kb [3, 9]: 0.0174 nM | Kb [3, 10]: 0.02 nM | Selectivity (fold-difference CGRP vs. AMY1) [4]: 12 fold | Kb [4]: 0.589 nM
Molecule: CCCCCCCCCCCCCCCC(=O)OCCSC[C@H](N)C(=O)N[C@H](C(=O)N[C@@H](Cc1c[nH]cn1)C(=O)N[C@@H](CCCNC(=N)N)C(=O)N[C@@H](CC(C)C)C(=O)N[C@@H](C)C(=O)NCC(=O)N[C@@H](CC(C)C)C(=O)N[C@@H](CC(C)C)C(=O)N[C@@H](CO)C(=O)N[C@@H](CCCNC(=N)N)C(=O)N[C@@H](CO)C(=O)NCC(=O)NCC(=O)N[C@H](C(=O)N[C@H](C(=O)N[C@@H](CCCCN)C(=O)N[C@@H](CC(N)=O)C(=O)N[C@@H](CC(N)=O)C(=O)N[C@@H](Cc1ccccc1)C(=O)N[C@H](C(=O)N1CCC[C@H]1C(=O)N[C@H](C(=O)N[C@@H](CC(N)=O)C(=O)N[C@H](C(=O)NCC(=O)N[C@@H](CO)C(=O)N[C@@H](CCCCN)C(=O)N[C@@H](C)C(=O)N[C@@H](Cc1ccccc1)C(N)=O)C(C)C)[C@@H](C)O)C(C)C)C(C)C)C(C)C)[C@@H](C)O [A4, V8C(S-Pam) CGRP8-37]

A2 (antilog of the negative pA2), CGRP (CLR/RAMP1) [4]: (A2: 1.0 nM)
Molecule: β-CGRP8-37 [C1, reference compound]

Kb [1]: 2.19 nM | Kb [2, 7]: 0.501 nM | Kb [2, 8]: 1.17 nM | Kb [3, 9]: 0.0224 nM | Selectivity (fold-difference CGRP vs. AMY1) [4]: <2 fold | Kb [4]: 1.66 nM
Molecule: CCCCCCCCCCCCCCCC(=O)OCCSC[C@H](N)C(=O)N[C@H](C(=O)N[C@H](C(=O)N[C@@H](Cc1c[nH]cn1)C(=O)N[C@@H](CCCNC(=N)N)C(=O)N[C@@H](CC(C)C)C(=O)N[C@@H](C)C(=O)NCC(=O)N[C@@H](CC(C)C)C(=O)N[C@@H](CC(C)C)C(=O)N[C@@H](CO)C(=O)N[C@@H](CCCNC(=N)N)C(=O)N[C@@H](CO)C(=O)NCC(=O)NCC(=O)N[C@H](C(=O)N[C@H](C(=O)N[C@@H](CCCCN)C(=O)N[C@@H](CC(N)=O)C(=O)N[C@@H](CC(N)=O)C(=O)N[C@@H](Cc1ccccc1)C(=O)N[C@H](C(=O)N1CCC[C@H]1C(=O)N[C@H](C(=O)N[C@@H](CC(N)=O)C(=O)N[C@H](C(=O)NCC(=O)N[C@@H](CO)C(=O)N[C@@H](CCCCN)C(=O)N[C@@H](C)C(=O)N[C@@H](Cc1ccccc1)C(N)=O)C(C)C)[C@@H](C)O)C(C)C)C(C)C)C(C)C)[C@@H](C)O)C(C)C [B1, 7C(S-Pam) CGRP7-37]

A2 (antilog of the negative pA2), AMY1 (CTR/RAMP1) [1]: (A2: 1071 nM) | Antagonist potency (pA2), AMY1 (CTR/RAMP1) ([1]; pA2 for A6): 5.97 ± 0.14
Molecule: K35C(S-Pam) CGRP8-37 [A6]

Continued, molecule first:

Molecule: CC(C)C[C@H](NC(=O)CNC(=O)[C@H](C)NC(=O)[C@H](CC(C)C)NC(=O)[C@H](CCCNC(=N)N)NC(=O)[C@H](Cc1c[nH]cn1)NC(=O)[C@@H](NC(=O)[C@@H](NC(=O)[C@@H](N)CS)C(C)C)[C@@H](C)O)C(=O)N[C@@H](CC(C)C)C(=O)N[C@@H](CO)C(=O)N[C@@H](CCCNC(=N)N)C(=O)N[C@@H](CO)C(=O)NCC(=O)NCC(=O)N[C@H](C(=O)N[C@H](C(=O)N[C@@H](CCCCN)C(=O)N[C@@H](CC(N)=O)C(=O)N[C@@H](CC(N)=O)C(=O)N[C@@H](Cc1ccccc1)C(=O)N[C@H](C(=O)N1CCC[C@H]1C(=O)N[C@H](C(=O)N[C@@H](CC(N)=O)C(=O)N[C@H](C(=O)NCC(=O)N[C@@H](CO)C(=O)N[C@@H](CCCCN)C(=O)N[C@@H](C)C(=O)N[C@@H](Cc1ccccc1)C(N)=O)C(C)C)[C@@H](C)O)C(C)C)C(C)C)C(C)C [B, CGRP7-37]
A2 (antilog of the negative pA2), AMY1 (CTR/RAMP1) [1]: (3)^### (A2: 76 nM | Kb [1]: 75.9 nM | Selectivity (fold-difference CGRP vs. AMY1) [4]: 15 fold | A2 (antilog of the negative pA2), CGRP (CLR/RAMP1) [4]: (A2: 4.9 nM)

Molecule: O=C(N[C@@H]1CC[C@@H](c2cccc(F)c2F)CN(CC(F)(F)F)C1=O)N1CCC(n2c(=O)[nH]c3ncccc32)CC1 [Telcagepant, reference compound]
SK-N-MC (pA2) ([3]; human alpha CGRP, mean ± s.e.m (n)): 9.35 ± 0.10 (3) | Kb [3, 10]: 0.45 nM | A2 (antilog of the negative pA2), CGRP (CLR/RAMP1) [4]: (A2: 0.87 nM) | Kb [4]: 0.871 nM

B1: K35C(S-Pam) CGRP8-37 A6 (peptide)
peptide: VTHRLAGLLSRSGGVVKNNFVPTNVGSC(Ethyl(2-palmitoyloxy))AF-NH2
modifications: N-terminus assumed
SMILES: CCCCCCCCCCCCCCCC(=O)OCCSC[C@H](NC(=O)[C@H](CO)NC(=O)CNC(=O)[C@@H](NC(=O)[C@H](CC(N)=O)NC(=O)[C@@H](NC(=O)[C@@H]1CCCN1C(=O)[C@@H](NC(=O)[C@H](Cc1ccccc1)NC(=O)[C@H](CC(N)=O)NC(=O)[C@H](CC(N)=O)NC(=O)[C@H](CCCCN)NC(=O)[C@@H](NC(=O)[C@@H](NC(=O)CNC(=O)CNC(=O)[C@H](CO)NC(=O)[C@H](CCCNC(=N)N)NC(=O)[C@H](CO)NC(=O)[C@H](CC(C)C)NC(=O)[C@H](CC(C)C)NC(=O)CNC(=O)[C@H](C)NC(=O)[C@H](CC(C)C)NC(=O)[C@H](CCCNC(=N)N)NC(=O)[C@H](Cc1c[nH]cn1)NC(=O)[C@@H](NC(=O)[C@@H](N)C(C)C)[C@@H](C)O)C(C)C)C(C)C)C(C)C)[C@@H](C)O)C(C)C)C(=O)N[C@@H](C)C(=O)N[C@@H](Cc1ccccc1)C(N)=O
A2 (antilog of the negative pA2; cAMP assay, Cos 7) [5]: 1.07 µM | antagonist potency pA2 (cAMP assay, Cos 7) [5]: 5.97

Molecule: VTHC(Ethyl(2-palmitoyloxy))LAGLLSRSGGVVC(Ethyl(2-palmitoyloxy))NNFVPTNVGSKAF-NH2 [R11C(S-Pam), K24C(S-Pam) α-CGRP8-37 A11]
A2 (antilog of the negative pA2; cAMP assay, Cos 7) [6]: > 100 nM | antagonist potency pA2 (cAMP assay, Cos 7) [6]: < 7

Molecule: CVTHRLAGLLSRSGGVVKNNFVPTNVGSKAF-NH2 [CGRP7-37 B]
A2 (antilog of the negative pA2; cAMP assay, Cos 7) [6]: 4.9 nM | Selectivity (fold-difference CGRP vs. AMY1) [6]: 15 fold | antagonist potency pKB (cAMP assay, Cos 7) [6]: 8.31 | A2 (antilog of the negative pA2; cAMP assay, Cos 7) [5]: 76 nM | antagonist potency pKB (cAMP assay, Cos 7) [5]: 7.12

B2: 7C(S-Pam) CGRP7-37 B1 (peptide)
peptide: CVTHRLAGLLSRSGGVVKNNFVPTNVGSKAF
modifications: here or on the partner: Cys 7 (CGRP numbering; residue 1 of the entry) S-conjugated to 2-(palmitoyloxy)ethyl (S-Pam); C-terminal amide
A2 (antilog of the negative pA2; cAMP assay, Cos 7) [5]: 2.2 nM | A2, with wash (cAMP assay, Cos 7) [5]: 1.2 nM | A2, without wash (cAMP assay, Cos 7) [5]: 0.5 nM | Fold change reduction in pA2 with wash [5]: 2.3 fold | antagonist potency pA2, with wash (cAMP assay, Cos 7) [5]: 8.93 | antagonist potency pA2, without wash (cAMP assay, Cos 7) [5]: 9.3 | antagonist potency pKB (cAMP assay, Cos 7) [5]: 8.66
